According to publication doi:10.1101/2024.10.09.617372v4, “Cholesterol differentially modulates the activity of opioid and muscarinic receptors via a common binding site” (biorxiv, 2025):

Target: T1, M2 muscarinic receptor (M2) (Homo sapiens, UniProt P08172)
T1 construct: gene CHRM2; full-length human receptor, cDNA from Missouri S&T cDNA Resource Center, expressed in CHO cells; membranes
T1 sequence (P08172 1-466): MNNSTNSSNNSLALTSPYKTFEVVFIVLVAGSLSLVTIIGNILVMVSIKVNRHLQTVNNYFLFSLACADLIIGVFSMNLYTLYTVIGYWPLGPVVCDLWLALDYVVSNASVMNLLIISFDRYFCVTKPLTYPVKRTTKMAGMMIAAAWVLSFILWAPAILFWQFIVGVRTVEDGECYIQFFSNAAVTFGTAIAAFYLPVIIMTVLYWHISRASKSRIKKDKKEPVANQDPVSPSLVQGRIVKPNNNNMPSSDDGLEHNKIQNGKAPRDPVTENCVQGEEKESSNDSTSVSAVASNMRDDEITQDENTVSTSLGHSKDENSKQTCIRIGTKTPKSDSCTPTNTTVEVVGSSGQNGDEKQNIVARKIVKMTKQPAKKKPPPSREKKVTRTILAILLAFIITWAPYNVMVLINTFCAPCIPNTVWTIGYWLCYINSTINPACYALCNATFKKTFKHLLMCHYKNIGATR
Assay: radioligand saturation binding, CHO membranes
Conditions: labelled compound; […] h, […] °C, pH […]

`C[N+]1(C)[C@@H]2C[C@@H](OC(=O)[C@H](CO)c3ccccc3)C[C@H]1[C@@H]1O[C@@H]12` [[3H]N-methylscopolamine] was tested, and the KD was “equilibrium dissociation constant KD, expressed in nM, of [^3H]NMS (muscarinic)”.
